From PubChem BioAssay (NCI)
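Five compound concentrations were applied to cells in 96-well plates for 48 hours; endpoints were derived by simple linear interpolation of the resulting dose-response curve. The concentration for 50% growth inhibition is given as GI50. TGI denotes the concentration required for complete inhibition of growth.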

What was measured:
Assay in all cases: NCI anticancer screen, dose series, 48 h
ACHN renal = tested on: ACHN renal
OVCAR-5 ovarian = tested on: OVCAR-5 ovarian
HS 578T breast = tested on: HS 578T breast
NCI-H226 lung = tested on: NCI-H226 lung
HL-60(TB) leukemia = tested on: HL-60(TB) leukemia
RXF 393 renal = tested on: RXF 393 renal
SK-MEL-28 melanoma = tested on: SK-MEL-28 melanoma
SK-MEL-5 melanoma = tested on: SK-MEL-5 melanoma
SF-268 CNS = tested on: SF-268 CNS
A498 renal = tested on: A498 renal
SK-OV-3 ovarian = tested on: SK-OV-3 ovarian
IGROV1 ovarian = tested on: IGROV1 ovarian
OVCAR-4 ovarian = tested on: OVCAR-4 ovarian
HCT-116 colon = tested on: HCT-116 colon
CAKI-1 renal = tested on: CAKI-1 renal
PC-3 prostate = tested on: PC-3 prostate
HCC-2998 colon = tested on: HCC-2998 colon
786-0 renal = tested on: 786-0 renal
SN12C renal = tested on: SN12C renal
HCT-15 colon = tested on: HCT-15 colon
OVCAR-8 ovarian = tested on: OVCAR-8 ovarian
MALME-3M melanoma = tested on: MALME-3M melanoma
SK-MEL-2 melanoma = tested on: SK-MEL-2 melanoma
NCI/ADR-RES ovarian = tested on: NCI/ADR-RES ovarian
LOX IMVI melanoma = tested on: LOX IMVI melanoma
OVCAR-3 ovarian = tested on: OVCAR-3 ovarian
NCI-H522 lung = tested on: NCI-H522 lung
U251 CNS = tested on: U251 CNS
UACC-62 melanoma = tested on: UACC-62 melanoma
SF-539 CNS = tested on: SF-539 CNS
MCF7 breast = tested on: MCF7 breast
M14 melanoma = tested on: M14 melanoma
KM12 colon = tested on: KM12 colon
NCI-H460 lung = tested on: NCI-H460 lung
NCI-H23 lung = tested on: NCI-H23 lung
COLO 205 colon = tested on: COLO 205 colon
MDA-MB-231 breast = tested on: MDA-MB-231 breast
A549 NSCLC = tested on: A549 NSCLC
TK-10 renal = tested on: TK-10 renal
SNB-75 CNS = tested on: SNB-75 CNS
HOP-92 NSCLC = tested on: HOP-92 NSCLC
CCRF-CEM leukemia = tested on: CCRF-CEM leukemia
SW-620 colon = tested on: SW-620 colon
T-47D breast = tested on: T-47D breast
SF-295 CNS = tested on: SF-295 CNS
RPMI-8226 leukemia = tested on: RPMI-8226 leukemia
K-562 leukemia = tested on: K-562 leukemia
MDA-MB-435 = tested on: MDA-MB-435
HT29 colon = tested on: HT29 colon
SNB-19 CNS = tested on: SNB-19 CNS
DU-145 prostate = tested on: DU-145 prostate
MOLT-4 leukemia = tested on: MOLT-4 leukemia
HOP-62 NSCLC = tested on: HOP-62 NSCLC
UO-31 renal = tested on: UO-31 renal
UACC-257 melanoma = tested on: UACC-257 melanoma
SR leukemia = tested on: SR leukemia

N=C(N)c1ccc(-c2ccc(/C=C/c3ccccc3)s2)cc1
GI50 (ACHN renal): 1.67 µM
TGI (ACHN renal): 3.03 µM
GI50 (OVCAR-5 ovarian): 1.47 µM
TGI (OVCAR-5 ovarian): 2.87 µM
GI50 (HS 578T breast): 2.58 µM
TGI (HS 578T breast): 7.32 µM
GI50 (NCI-H226 lung): 6.82 µM
TGI (NCI-H226 lung): 46 µM
GI50 (HL-60(TB) leukemia): 2.17 µM
TGI (HL-60(TB) leukemia): 4.67 µM
GI50 (RXF 393 renal): 1.65 µM
TGI (RXF 393 renal): 3.13 µM
GI50 (SK-MEL-28 melanoma): 1.65 µM
TGI (SK-MEL-28 melanoma): 3.07 µM
GI50 (SK-MEL-5 melanoma): 2.6 µM
TGI (SK-MEL-5 melanoma): 7.12 µM
GI50 (SF-268 CNS): 4.28 µM
TGI (SF-268 CNS): 39.7 µM
GI50 (A498 renal): 11.9 µM
TGI (A498 renal): 34.1 µM
GI50 (SK-OV-3 ovarian): 2.07 µM
TGI (SK-OV-3 ovarian): 4.9 µM

CC1(C)S[C@@H]2[C@H](N3C(=O)c4ccccc4C3=O)CN2[C@H]1NC(=O)N[C@@H]1N2C[C@@H](N3C(=O)c4ccccc4C3=O)[C@H]2SC1(C)C
TGI (ACHN renal): > 100 µM
TGI (IGROV1 ovarian): > 100 µM
TGI (OVCAR-4 ovarian): > 100 µM
TGI (OVCAR-5 ovarian): > 100 µM
TGI (HCT-116 colon): > 100 µM
TGI (CAKI-1 renal): > 100 µM
TGI (PC-3 prostate): > 100 µM
TGI (HCC-2998 colon): > 100 µM
TGI (786-0 renal): > 100 µM
TGI (SN12C renal): > 100 µM
TGI (HCT-15 colon): > 100 µM
TGI (HS 578T breast): > 100 µM
TGI (NCI-H226 lung): > 100 µM
TGI (OVCAR-8 ovarian): > 100 µM
TGI (MALME-3M melanoma): > 100 µM
TGI (SK-MEL-2 melanoma): > 100 µM
TGI (HL-60(TB) leukemia): > 100 µM
TGI (NCI/ADR-RES ovarian): > 100 µM
TGI (LOX IMVI melanoma): > 100 µM
TGI (OVCAR-3 ovarian): > 100 µM
TGI (NCI-H522 lung): > 100 µM
TGI (U251 CNS): 58.5 µM
TGI (UACC-62 melanoma): > 100 µM
TGI (SF-539 CNS): > 100 µM
TGI (MCF7 breast): > 100 µM
TGI (M14 melanoma): > 100 µM
TGI (RXF 393 renal): 82.1 µM
TGI (KM12 colon): > 100 µM
TGI (NCI-H460 lung): > 100 µM
TGI (NCI-H23 lung): > 100 µM
TGI (COLO 205 colon): > 100 µM
TGI (MDA-MB-231 breast): > 100 µM
TGI (A549 NSCLC): > 100 µM
TGI (TK-10 renal): > 100 µM
TGI (SNB-75 CNS): > 100 µM
TGI (SK-MEL-28 melanoma): > 100 µM
TGI (HOP-92 NSCLC): > 100 µM
TGI (CCRF-CEM leukemia): > 100 µM
TGI (SK-MEL-5 melanoma): > 100 µM
TGI (SF-268 CNS): 81.3 µM
TGI (A498 renal): > 100 µM
TGI (SW-620 colon): > 100 µM
TGI (T-47D breast): > 100 µM
TGI (SF-295 CNS): > 100 µM
TGI (RPMI-8226 leukemia): > 100 µM
TGI (K-562 leukemia): > 100 µM
TGI (SK-OV-3 ovarian): > 100 µM
TGI (MDA-MB-435): > 100 µM
TGI (HT29 colon): > 100 µM
TGI (SNB-19 CNS): > 100 µM
TGI (DU-145 prostate): > 100 µM
TGI (MOLT-4 leukemia): > 100 µM
TGI (HOP-62 NSCLC): > 100 µM
TGI (UO-31 renal): > 100 µM

COc1cc(OC)cc(-c2ccc(-c3ccc(C(=N)N)cn3)o2)c1
GI50 (ACHN renal): 1.71 µM
TGI (ACHN renal): 3.16 µM
GI50 (IGROV1 ovarian): 1.81 µM
TGI (IGROV1 ovarian): 3.38 µM
GI50 (OVCAR-4 ovarian): 1.74 µM
TGI (OVCAR-4 ovarian): 3.46 µM
GI50 (OVCAR-5 ovarian): 1.74 µM
TGI (OVCAR-5 ovarian): 3.2 µM
GI50 (PC-3 prostate): 1.65 µM
TGI (PC-3 prostate): 3.14 µM
GI50 (HS 578T breast): 1.66 µM
TGI (HS 578T breast): 3.58 µM
GI50 (MALME-3M melanoma): 1.82 µM
TGI (MALME-3M melanoma): 3.49 µM
GI50 (SK-MEL-2 melanoma): 2.01 µM
TGI (SK-MEL-2 melanoma): 3.72 µM
GI50 (HL-60(TB) leukemia): 2.12 µM
TGI (HL-60(TB) leukemia): 4.38 µM
GI50 (NCI/ADR-RES ovarian): 6.53 µM
TGI (NCI/ADR-RES ovarian): 38.5 µM
GI50 (OVCAR-3 ovarian): 1.89 µM
TGI (OVCAR-3 ovarian): 3.46 µM
GI50 (U251 CNS): 1.62 µM
TGI (U251 CNS): 3.02 µM
GI50 (UACC-62 melanoma): 1.77 µM
TGI (UACC-62 melanoma): 3.29 µM
GI50 (SF-539 CNS): 1.55 µM
TGI (SF-539 CNS): 2.9 µM
GI50 (UACC-257 melanoma): 1.76 µM
TGI (UACC-257 melanoma): 3.3 µM
GI50 (KM12 colon): 1.78 µM
TGI (KM12 colon): 3.34 µM
GI50 (NCI-H460 lung): 1.63 µM
TGI (NCI-H460 lung): 3.16 µM
GI50 (COLO 205 colon): 1.62 µM
TGI (COLO 205 colon): 3.27 µM
GI50 (A549 NSCLC): 1.86 µM
TGI (A549 NSCLC): 3.52 µM
GI50 (TK-10 renal): 1.79 µM
TGI (TK-10 renal): 3.26 µM
GI50 (SNB-75 CNS): 1.48 µM
TGI (SNB-75 CNS): 2.85 µM
GI50 (SK-MEL-28 melanoma): 1.65 µM
TGI (SK-MEL-28 melanoma): 3.16 µM
GI50 (HOP-92 NSCLC): 1.42 µM
TGI (HOP-92 NSCLC): 2.87 µM
GI50 (CCRF-CEM leukemia): 2.06 µM
TGI (CCRF-CEM leukemia): 4.6 µM
GI50 (SK-MEL-5 melanoma): 1.6 µM
TGI (SK-MEL-5 melanoma): 2.97 µM
GI50 (SF-268 CNS): 1.86 µM
TGI (SF-268 CNS): 3.62 µM
GI50 (A498 renal): 1.22 µM
TGI (A498 renal): 2.51 µM
GI50 (SW-620 colon): 1.67 µM
TGI (SW-620 colon): 3.25 µM
GI50 (SF-295 CNS): 1.86 µM
TGI (SF-295 CNS): 3.46 µM
GI50 (RPMI-8226 leukemia): 1.92 µM
TGI (RPMI-8226 leukemia): 4.33 µM
GI50 (K-562 leukemia): 1.32 µM
TGI (K-562 leukemia): 2.98 µM
GI50 (SK-OV-3 ovarian): 1.91 µM
TGI (SK-OV-3 ovarian): 3.34 µM
GI50 (MDA-MB-435): 1.55 µM
TGI (MDA-MB-435): 2.99 µM
GI50 (SR leukemia): 1.73 µM
TGI (SR leukemia): 3.96 µM
GI50 (DU-145 prostate): 1.76 µM
TGI (DU-145 prostate): 3.25 µM
GI50 (MOLT-4 leukemia): 1.74 µM
TGI (MOLT-4 leukemia): 3.59 µM
GI50 (UO-31 renal): 1.59 µM
TGI (UO-31 renal): 3.06 µM
